Laboratory results from PubChem BioAssay AID2060603 (Molecular Pharmacology Branch, DTP, NCI, 2025).

System: 422866-222-R5-J1-PDC spheroid viability
Experiment: Anticancer human tumor 422866-222-R5-J1-PDC patient-derived pancreatic adenocarcinoma cell line growth inhibition [CLK]
Conditions: spheroids with HUVEC and MSC; for IC50: curve of first compound; for viability, T/C: stronger effect = lower value; active means viability on the fitted dose curve at most 10% of control; inactive means the rest
Procedure, shortened: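 Multi-cell-type spheroids combined patient-derived tumor cells with HUVEC endothelial cells and human mesenchymal stem cells. Paired agents were dosed in half-log steps down from about clinical Cmax, or from 10 microM where Cmax was unknown.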
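Further: spheroids exposed to agents for seven days before readout.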

C=CC(=O)Nc1cc(Nc2nccc(-c3cn(C)c4ccccc34)n2)c(OC)cc1N(C)CCN(C)C + CNC(=O)c1ccc(Nc2nc(OC3CCCC3)c3c(-c4ccc5nc(C)oc5c4)c[nH]c3n2)c(OC)c1
> 0.3 µM: IC50 (second compound 0.0316 µM) | IC50 (second compound 0.1 µM) | IC50 (second compound 0.316 µM) | IC50 (second compound 1 µM) | IC50 (second compound 3.16 µM) | IC50 (second compound 10 µM)
inactive: viability, T/C (second compound 0.0316 µM, first compound 0.000949 µM) 98.9% | viability, T/C (second compound 0.0316 µM, first compound 0.003 µM) 98.2% | viability, T/C (second compound 0.0316 µM, first compound 0.00949 µM) 85.4% | viability, T/C (second compound 0.0316 µM, first compound 0.03 µM) 79.2% | viability, T/C (second compound 0.0316 µM, first compound 0.0949 µM) 69.7% | viability, T/C (second compound 0.0316 µM, first compound 0.3 µM) 77.1% | viability, T/C (second compound 0.1 µM, first compound 0.000949 µM) 103% | viability, T/C (second compound 0.1 µM, first compound 0.003 µM) 82.9% | viability, T/C (second compound 0.1 µM, first compound 0.00949 µM) 74.5% | viability, T/C (second compound 0.1 µM, first compound 0.03 µM) 71.8% | viability, T/C (second compound 0.1 µM, first compound 0.0949 µM) 70.7% | viability, T/C (second compound 0.1 µM, first compound 0.3 µM) 57.1% | viability, T/C (second compound 0.316 µM, first compound 0.000949 µM) 66.3% | viability, T/C (second compound 0.316 µM, first compound 0.003 µM) 73.5% | viability, T/C (second compound 0.316 µM, first compound 0.00949 µM) 68% | viability, T/C (second compound 0.316 µM, first compound 0.03 µM) 58.7% | viability, T/C (second compound 0.316 µM, first compound 0.0949 µM) 59.2% | viability, T/C (second compound 0.316 µM, first compound 0.3 µM) 60.7% | viability, T/C (second compound 1 µM, first compound 0.000949 µM) 60.8% | viability, T/C (second compound 1 µM, first compound 0.003 µM) 65.8% | viability, T/C (second compound 1 µM, first compound 0.00949 µM) 60.9% | viability, T/C (second compound 1 µM, first compound 0.03 µM) 65.5% | viability, T/C (second compound 1 µM, first compound 0.0949 µM) 59.3% | viability, T/C (second compound 1 µM, first compound 0.3 µM) 54.8% | viability, T/C (second compound 3.16 µM, first compound 0.000949 µM) 52.8% | viability, T/C (second compound 3.16 µM, first compound 0.003 µM) 61.6% | viability, T/C (second compound 3.16 µM, first compound 0.00949 µM) 60.4% | viability, T/C (second compound 3.16 µM, first compound 0.03 µM) 56.4% | viability, T/C (second compound 3.16 µM, first compound 0.0949 µM) 62.7% | viability, T/C (second compound 3.16 µM, first compound 0.3 µM) 54.9% | viability, T/C (second compound 10 µM, first compound 0.000949 µM) 69.6% | viability, T/C (second compound 10 µM, first compound 0.003 µM) 68.8% | viability, T/C (second compound 10 µM, first compound 0.00949 µM) 63.5% | viability, T/C (second compound 10 µM, first compound 0.03 µM) 62.4% | viability, T/C (second compound 10 µM, first compound 0.0949 µM) 55.6% | viability, T/C (second compound 10 µM, first compound 0.3 µM) 51.7%

Nc1ccccc1NC(=O)c1ccc(CNC(=O)OCc2cccnc2)cc1 + CNC(=O)c1ccc(Nc2nc(OC3CCCC3)c3c(-c4ccc5nc(C)oc5c4)c[nH]c3n2)c(OC)c1
> 10 µM: IC50 (second compound 0.0316 µM) | IC50 (second compound 0.1 µM) | IC50 (second compound 0.316 µM) | IC50 (second compound 3.16 µM) | IC50 (second compound 10 µM)
4.64 µM: IC50 (second compound 1 µM)
inactive: viability, T/C (second compound 0.0316 µM, first compound 0.0316 µM) 115% | viability, T/C (second compound 0.0316 µM, first compound 0.1 µM) 121% | viability, T/C (second compound 0.0316 µM, first compound 0.316 µM) 157% | viability, T/C (second compound 0.0316 µM, first compound 1 µM) 90% | viability, T/C (second compound 0.0316 µM, first compound 3.16 µM) 68.7% | viability, T/C (second compound 0.0316 µM, first compound 10 µM) 74.7% | viability, T/C (second compound 0.1 µM, first compound 0.0316 µM) 106% | viability, T/C (second compound 0.1 µM, first compound 0.1 µM) 116% | viability, T/C (second compound 0.1 µM, first compound 0.316 µM) 114% | viability, T/C (second compound 0.1 µM, first compound 1 µM) 99.8% | viability, T/C (second compound 0.1 µM, first compound 3.16 µM) 77.9% | viability, T/C (second compound 0.1 µM, first compound 10 µM) 79.2% | viability, T/C (second compound 0.316 µM, first compound 0.0316 µM) 82.5% | viability, T/C (second compound 0.316 µM, first compound 0.1 µM) 76.5% | viability, T/C (second compound 0.316 µM, first compound 0.316 µM) 77% | viability, T/C (second compound 0.316 µM, first compound 1 µM) 80.8% | viability, T/C (second compound 0.316 µM, first compound 3.16 µM) 64.5% | viability, T/C (second compound 0.316 µM, first compound 10 µM) 50.9% | viability, T/C (second compound 1 µM, first compound 0.0316 µM) 75.1% | viability, T/C (second compound 1 µM, first compound 0.1 µM) 67.6% | viability, T/C (second compound 1 µM, first compound 0.316 µM) 69.1% | viability, T/C (second compound 1 µM, first compound 1 µM) 60.8% | viability, T/C (second compound 1 µM, first compound 3.16 µM) 58.5% | viability, T/C (second compound 1 µM, first compound 10 µM) 39.1% | viability, T/C (second compound 3.16 µM, first compound 0.0316 µM) 65.7% | viability, T/C (second compound 3.16 µM, first compound 0.1 µM) 60.2% | viability, T/C (second compound 3.16 µM, first compound 0.316 µM) 77.6% | viability, T/C (second compound 3.16 µM, first compound 1 µM) 76.2% | viability, T/C (second compound 3.16 µM, first compound 3.16 µM) 60.6% | viability, T/C (second compound 3.16 µM, first compound 10 µM) 49.6% | viability, T/C (second compound 10 µM, first compound 0.0316 µM) 67.2% | viability, T/C (second compound 10 µM, first compound 0.1 µM) 60.6% | viability, T/C (second compound 10 µM, first compound 0.316 µM) 71.9% | viability, T/C (second compound 10 µM, first compound 1 µM) 61.2% | viability, T/C (second compound 10 µM, first compound 3.16 µM) 67.3% | viability, T/C (second compound 10 µM, first compound 10 µM) 48.1%
